pEC50, pKi: −log10 of the molar value.
Columns and labels:
human D4 receptor [1] = target: T1, human D4 receptor (Homo sapiens (Human), UniProt P21917); assay: Test 1: agonistic activity for human D4 receptor (aequorin/Gα16 luminescence in CHO-K1 cell); format: cell-based
human 5-HT1A receptor = human 5-HT1A receptor (Homo sapiens (Human), UniProt P08908); assay: Test 2: binding activity to human 5-HT1A receptor ([3H] 8-OH-DPAT, CHO cell membrane); conditions: [3H] 8-OH-DPAT; read-out: 5-HT1A binding affinity (Ki value)
human 5-HT1A receptor, sequence (P08908 whole entry): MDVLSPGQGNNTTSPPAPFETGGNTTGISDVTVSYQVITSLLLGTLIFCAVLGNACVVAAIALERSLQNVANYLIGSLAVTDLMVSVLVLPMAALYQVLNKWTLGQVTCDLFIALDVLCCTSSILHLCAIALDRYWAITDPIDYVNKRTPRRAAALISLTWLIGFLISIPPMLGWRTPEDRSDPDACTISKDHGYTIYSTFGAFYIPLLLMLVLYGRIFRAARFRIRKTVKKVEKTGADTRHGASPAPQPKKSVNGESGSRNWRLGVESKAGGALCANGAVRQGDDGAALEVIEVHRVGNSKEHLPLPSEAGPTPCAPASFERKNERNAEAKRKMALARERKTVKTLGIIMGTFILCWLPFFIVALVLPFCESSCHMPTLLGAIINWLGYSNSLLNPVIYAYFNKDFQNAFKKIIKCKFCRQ

human D4 receptor [2] = target: T1, human D4 receptor; assay: Test 2: binding activity to human D4 receptor ([3H] dopamine, CHO cell membrane); conditions: [3H] dopamine; read-out: D4 binding affinity (Ki value)
[3] = Test 4-2: predictive test of human half-life (monkey distribution volume, serum unbound fraction, Test 3-2 stability); conditions: in vivo, predicted using Test 3-2 metabolic stability
Method: Test 4-2: Predictive Test of Human Half-Life
0.01 mol/L of the present compound in aqueous hydrochloric acid solution was parenterally administered to cynomolgus monkey. 5 minutes, 15 minutes, 30 minutes, 1 hour, 2 hours, 4 hours, 6 hours, and 24 hours after the administration, the blood was collected. The plasma was obtained from the collected blood, the drug concentration in the plasma was measured with a LC-MS, and the monkey distribution volume was calculated from the transition of the concentrations. The unbound fraction rate of the present compound in serum of human and monkey was measured by equilibrium dialysis method.
Using the monkey distribution volume, the unbound fraction rate in serum of human and monkey, and the result of the metabolic stability of human liver microsome which was obtained in Test 3-2, the half-life in human was calculated according to the formula below. “Human distribution volume”=“monkey distribution volume”×“unbound fraction rate in serum of human”/“unbound fraction rate in serum of monkey” “Human hepatic clearance”=(“human hepatic blood flow”×“unbound fraction rate in serum of human”×56.7×“metabolic stability of human liver microsome”)/(“human hepatic blood flow”+“unbound fraction rate in serum of human”×56.7×“metabolic stability of human liver microsome”) “Half-life in human”=0.693×“human distribution volume”/“human hepatic clearance”

SD male rat = assay: Test 6: contextual fear conditioning test; format: in vivo; conditions: 15 mg/kg administration
Method: Test 6: Contextual Fear Conditioning Test
The antianxiety of the present compounds was evaluated in a manner mentioned below.
The evaluation of an 8-week-old SD male rat with a fear conditioning test system (O'HARA & CO., LTD.) was carried out in 2-day test schedule. On the 1st day of the test, by giving 0.5 mA of electric shock to the rat as unconditioned stimulus 5 times for 6 minutes, the rat was made to learn the relationship the context (the illuminance in the cage: 200 lx) which was given as conditioned stimulus, and phobic stimulus. On the 2nd day, the present compound was subcutaneously administered with saline solution to the rat, or orally administered with methylcellulose suspension to the rat. 0.5 or 1 hour after the administration, the rat was made to softly enter the cage under the condition in which the unconditioned stimulus was not given in the context. The time of cataleptic freezing reaction that the rat took for 5-minute freely-moving period and its ratio were measured. The ratios of cataleptic freezing reaction between the solvent-administration group and the present compound-administration group were compared to be statistically processed.

ICR male mouse = assay: Test 7: marble-burying behavior test; format: in vivo
Method: Test 7: Marble-Burying Behavior Test
The effect of the present compound for obsessive-compulsive disorder-like behavior was evaluated in a manner mentioned below.
450-500 g of paper floorcloth was beded in a plastic cage (floor area: 778 cm^2), and 20 glass marbles were set on the paper floorcloth at regular intervals. To a 5-week-old ICR male mouse, the present compound was intraperitoneally administered with saline solution. 15 minutes after the administration, the mouse was made to softly enter the corner of the cage and move freely in the cage for 15 minutes. Then the mouse was taken out from the cage. The number of the marbles that were buried in the floorcloth was counted. The numbers in the solvent-administration group and the present compound-administration group were compared to be statistically processed.

Wistar male rat = assay: Test 8: forced swimming test; format: in vivo; conditions: oral, once a day, 5 mg/kg administration
Method: Test 8: Forced Swimming Test
The antidepressive effect of the present compound was evaluated in a manner mentioned below.
The test was carried out with 8-week-old Wistar male rat in 4-day test schedule. On the 1st day of the test, the rat was put into a transparent plastic bath filled with 5.8 L of tap water at 25° C., and made to swim for 15 minutes as swimming training. After the swimming training, the rat was rapidly wiped to remove the attached waterdrop, and returned to the home cage. 15 minutes after the training, the present compound or a positive control compound was orally administered with methylcellulose suspension to the rat. On the next day of the training and the day after next, the present compound or the positive control compound was orally administered with methylcellulose suspension to the rat once a day. On the 4th day, the swimming test was carried out. On the day of the swimming test, the present compound or the positive control compound was orally administered with methylcellulose suspension to the rat one hour before the start of the test. The swimming test was carried out with the rat in the above-mentioned water bath for 5 minutes. The swimming movement of the individual was recorded with a video from the side of the water bath, and the immobility time was measured with a stop-watch. […]

T1 sequence (P21917 whole entry): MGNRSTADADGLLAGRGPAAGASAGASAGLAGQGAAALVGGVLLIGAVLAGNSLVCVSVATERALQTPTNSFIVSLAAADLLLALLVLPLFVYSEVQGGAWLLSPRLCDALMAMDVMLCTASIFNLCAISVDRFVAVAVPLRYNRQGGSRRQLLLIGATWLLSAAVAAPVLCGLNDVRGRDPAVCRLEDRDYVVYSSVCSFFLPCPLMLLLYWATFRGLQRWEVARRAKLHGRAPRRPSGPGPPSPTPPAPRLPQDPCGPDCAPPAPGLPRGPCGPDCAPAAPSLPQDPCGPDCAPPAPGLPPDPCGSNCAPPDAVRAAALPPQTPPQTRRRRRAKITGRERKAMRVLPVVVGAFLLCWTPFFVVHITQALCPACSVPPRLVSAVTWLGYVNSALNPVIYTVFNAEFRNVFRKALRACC

- Emax (human D4 receptor [1]; CHO-K1, 100% = 10 μmol/L endogenous ligand): 67%
- pEC50 (human D4 receptor [1]; CHO-K1 cell, aequorin luminescence): 7.92
- pKi (human 5-HT1A receptor): 9.40
- pKi (human D4 receptor [2]): 7.96
- half-life [3]: 24 h
Compound: O=C(NCCN1CCC(c2cccc(C(F)(F)F)n2)CC1)C1CCC(F)(F)CC1 [Example 1, 4,4-Difluoro-N-(2-{4-[6-(trifluoromethyl)pyridin-2-yl]piperidin-1-yl}ethyl)cyclohexane-carboxamide]
- decrease of the cataleptic freezing reaction for the solvent-administration group (SD male rat): 82.5%
- enhancement effect of decreasing the number of the buried marbles compared with single administration of escitalopram (ICR male mouse; combination with escitalopram, 0.3 mg/kg administration): 43.8%
- decrease of the buried marbles for the solvent-administration group (ICR male mouse; intraperitoneal, 0.5 mg/kg administration): 44.8%
- decrease of the immobility time for the solvent-administration group (Wistar male rat): 74.7%

Reference: patent US10800755B2, “2,6-disubstituted pyridine derivative” (Sumitomo Dainippon Pharma Co., Ltd., priority 2017, dated 2020)
